In US10729749B2, “Neurodegenerative disorders” (priority 2014, dated 2020):
Ends that are not written are not given here.

Tests used:
[1] = molecular target: α7 nicotinic-receptor (Homo sapiens, UniProt P36544); details: cited from earlier work
[2] = system: PC12 cells; assay: Acetylcholinesterase activity assay (AChE release from PC12 cells, Ellman reagent); assay type: cell-based; details: % AChE release compared to untreated control
Protocol: AChE activity was measured using the Ellman reagent that measures the presence of thiol groups as a result of AChE activity. Cells were plated the day before the experiment as for the cell viability assay. […] The Ellman reagent was prepared as a mixture of the 3 solutions in a ratio 33(A):3(B):4(C). Absorbance measurements were taken at regular intervals (3, 10, 30 and 60 mins) across experiments at 405 nm.

[3] = Cell viability assay (Cell Counting Kit-8); assay type: cell-based; details: % PC12 cell viability compared to untreated control;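 further: PC12 cells in 96-well plates, WST-8 turned into formazan by cellular dehydrogenases, absorbance read at 450 nm after 2 h with the reagent, signal proportional to living cell number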
From the text: (§1) A Cell Counting Kit-8 (CCK-8) was used as an improvement of the SRB technique used before. By utilizing the highly water-soluble tetrazolium salt WST-8, CCK-8 produces a water-soluble formazan dye upon reduction in the presence of an electron carrier. WST-8 is reduced by dehydrogenases in cells to give a yellow colored product (formazan), which is soluble in the tissue culture medium. The amount of the formazan dye generated by the activity of dehydrogenases in cells is directly proportional to the number of living cells. PC12 cells are plated in 200 μl of complete growth medium the day before the experiment in 96 well plates. […] Subsequently, 100 μl of growth medium is removed and 10 μl of CCK-8 (Cell Counting Kit-8) solution is added. The plate is incubated for 2 hours in the incubator and then placed in the absorbance plate reader. The absorbance must be measured at 450 nm.

[4] = system: PC12 cells; assay: Calcium fluorometry (Fluo-8, acetylcholine-induced calcium influx); assay type: cell-based; set-up: Calcium: scale not given here; details: for Calcium: calcium influx value, control based on acetylcholine alone
From the text: A final criterion used to determine active peptides is the amount of calcium influx into PC12 cells caused by the peptide. The calcium influx value can be calculated as described in the methods section. The calcium value corresponds to the result from the experiment when applying T30 or Aβ alone or in conjunction with the small peptides. The control value for these experiments is based on the calcium influx induced by acetylcholine alone. Preferably, the peptide, derivative or analogue thereof has a calcium influx value of less than 120, and more preferably a value of 97-120.
PC12 cells are plated in 200 μl of complete growth medium the day before the experiment in 96 well plates. On the day of the experiment, the Fluo-8 solution (Abcam) is prepared (as per provider protocol). Subsequently, 100 μl of growth medium is removed and 100 μl of Fluo-8 solution is added. Treatments with T30 or Aβ in conjunction with NBP-14 or small peptides are added and incubated for 30 minutes in the incubator and 30 minutes room temperature.
After 1 hour, the plate is placed in the fluorescence plate reader (Fluostar). Before reading the fluorescence, acetylcholine (ACh) 100 μM is prepared and placed in the Fluostar injector. For each well, the reading will be formed by a basal fluorescence followed by acetylcholine injection that will induce an increase of calcium via nicotinic receptors. The effects of the peptides are then evaluated.

[5] = system: PC12 cells; assay: Value coefficient (AChE release vs PC12 cell viability) and filter selection; assay type: cell-based; details: for Value AChE/Viability: 1.0 to 1.1 = protective, control = 1
From the text: AChE release vs PC12 cell viability (for which there is a significant negative correlation); • 2. In silico binding to the allosteric site of the α7 nicotinic-receptor; • 3. Calcium influx into PC12 cells; and • 4. Peptide size.

[6] = system: basal forebrain; assay: VSDI of evoked responses in basal forebrain brain slices; set-up: species or system rat; details: T30 2 μM & peptide 4 μM in perfusate; 30V electrical stimulation
Protocol: Coronal rat brain slices were prepared according to the procedure described in (Badin et al., 2013) but this time containing basal forebrain (+0.70 and −0.26 millimetres (mm) from bregma (Paxinos and Watson, 1998). Optical imaging using voltage-sensitive dyes was then performed as previously described (Badin et al., 2013, Neuropharmacology. 73C:10-18).
VSDI data were recorded in 4×4 mm 2-dimensional images, equivalent to 100×100 pixels—each pixel being 40×40 micrometres (μm), from which critical data were extracted. VSDI data was not gathered throughout the experimental run, but in fact was recorded in discrete periods of time 15 minutes in length. The inter-stimulus interval (ISI) between stimulations was 28 seconds and therefore, every recording epoch consisted of 32 successive stimulations. The data from all 32 stimulations were then averaged into a single file for each experimental condition and analysed using a VSDI data analysis toolbox specially made for MatLab (Bourgeois et al., 2014, PLoS One. 9:e108686). […] In order to quantify VSDI data however, the area under the curve was calculated (summed fluorescence fractional change, FIG. 11-22) between the moment of stimulation (t=0) and 280 ms after that; this method of quantification takes into account all the components of the immediate and longer-latency response. […]

[7] = system: PC12 cells; assay: Cell viability assay (Cell Counting Kit-8); assay type: cell-based; details: toxic peptide alone; compared to untreated control;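 further: PC12 cells in 96-well plates, WST-8 turned into formazan by cellular dehydrogenases, absorbance read at 450 nm after 2 h with the reagent, signal proportional to living cell number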
From the text: as §1

[8] = system: cells; details: inventors' previous work; cited from earlier work
[9] = system: rat brain slices; details: inventors' previous work, cited from earlier work
[10] = T30 5 μM + small peptide 0.5 μM

α7 nicotinic-receptor, sequence (P36544 23-502): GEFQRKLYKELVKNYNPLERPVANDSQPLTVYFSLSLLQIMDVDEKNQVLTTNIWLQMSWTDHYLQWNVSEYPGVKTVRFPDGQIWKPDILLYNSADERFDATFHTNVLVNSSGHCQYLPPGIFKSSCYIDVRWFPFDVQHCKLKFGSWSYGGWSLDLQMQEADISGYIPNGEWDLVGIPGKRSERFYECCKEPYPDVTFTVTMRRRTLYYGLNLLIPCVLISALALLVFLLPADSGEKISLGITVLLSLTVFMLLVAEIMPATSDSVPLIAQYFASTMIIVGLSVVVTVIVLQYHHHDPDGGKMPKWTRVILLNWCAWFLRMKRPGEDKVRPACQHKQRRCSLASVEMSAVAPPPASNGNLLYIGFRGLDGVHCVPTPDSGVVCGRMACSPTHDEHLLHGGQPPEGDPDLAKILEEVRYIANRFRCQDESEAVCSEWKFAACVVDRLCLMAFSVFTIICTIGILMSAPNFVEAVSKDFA

Q: Which “affinity for the α7 nicotinic-receptor” value [1] does the source give for COc1ccc2c3c1O[C@H]1C[C@@H](O)C=C[C@@]31CCN(C)C2 [galanthamine] here?
A: Its value is 10 µM.

Q: For “AEFHRWSSYMVHWK (listed as Homo sapiens) [T14, linear 14 amino acid peptide from the C-terminus of AChE]”, which “affinity for the α7 nicotinic-receptor” value [1] is on record?
A: Its value is 0.005 µM.

Q: What does the source list for KAEFHR [NBP-603, KAEFHR]?
A: AChE [2, 10]: 96.06%; viability [3, 10]: 94.8%; Calcium ([4]; T30 + small peptide): 119.86; dose-dependent effect on calcium potentiation against T30 ([4]; dose-dependent experiments, FIGS. 8 and 9): protect against T30 effects; Value AChE/Viability [5, 10]: 1.01; neuroprotective agent against T30 when all four filters are taken into consideration ([5]; filters: value coefficient, in silico binding, calcium influx, peptide size): neuroprotective agents against T30; reversal of T30-induced changes in evoked responses [6]: some significant effect in reversing the changes induced by T30

Q: Which results are given for “KAEFHRWSSYMVHWKNQFDHYSKQDRCSDL [T30, reference compound]”?
A: % PC12 cell viability [7]: 74.309%; value coefficient x ([5]; toxic peptide alone, x>1.1 means toxicity): 2.28

Q: With “NBP14: cyclic peptide based on T14 sequence AEFHRWSSYMVHWK, cyclated via the terminal Alanine and Lysine residues (head-to-tail cyclised; listed as Homo sapiens)” as the compound, how does the “reversal of T30-induced changes in evoked responses” value [6] read?
A: The value was “significantly reverse any kind of change induced by T30”.

Q: And the “action at the α7 nicotinic-receptor” value ([1]; inventors' previous work)?
A: Its value is “true antagonist of the α7 nicotinic-receptor”.

Q: What about the “compensatory AChE release” value [8] of the same compound?
A: The value was “blocks compensatory AChE release induced by the toxicity of linear T14 and T30”.

Q: And the “protection of cells from toxicity” value [8]?
A: Its value is “protect cells from linear T14, T30 and β-amyloid toxicity”.

Q: And the “effect on Ca2+ concentrations” value ([9]; given alone)?
A: The value was “no significant effects on Ca^2+ concentrations in rat brain slices”.

Q: And the “effect on β-amyloid action on Ca2+ concentrations” value [9]?
A: Its value is “blocks the effects of β-amyloid”.

Q: What does the source list for WSSYMVHWKAEFHR [NBP-1409]?
A: AChE [2, 10]: 94.85%; viability [3, 10]: 94.8%; Calcium ([4]; T30 + small peptide): 94.59; Value AChE/Viability [5, 10]: 1

Q: Which results are given for YMVHW [NBP-512]?
A: AChE ([2]; Aβ 5 μM + small peptide 0.5 μM): 104.81%; viability ([3]; Aβ 5 μM + small peptide 0.5 μM): 104%; Calcium ([4]; Aβ + small peptide): 163.09; Value AChE/Viability ([5]; Aβ 5 μM + small peptide 0.5 μM): 1.01

Q: What does the source list for YMVHWKAEFHR [NBP-1112]?
A: AChE ([2]; Aβ 5 μM + small peptide 0.5 μM): 98.77%; viability ([3]; Aβ 5 μM + small peptide 0.5 μM): 93.4%; Calcium ([4]; Aβ + small peptide): 127.62; Value AChE/Viability ([5]; Aβ 5 μM + small peptide 0.5 μM): 1.06

Q: For YMVHWKAEFHRW [NBP-1212], which AChE [2, 10] is on record?
A: The AChE was 88.29%.

Q: And the viability [3, 10]?
A: Its viability is 88.3%.

Q: What about the Calcium ([4]; T30 + small peptide) of the same compound?
A: The Calcium was 78.

Q: What about the “Value AChE/Viability” value [5, 10] of the same compound?
A: The value was 1.
